We go through eleven compounds from patent publication US6465441B2, “Screening method for modulation of human mast cell activation” (Duska Scientific Co., priority 1997, dated 2002).

One series has as its target human P2Y1 receptor (Homo sapiens, UniProt P47900). The note with it: cited from earlier work.
Series [1] concerns human lung mast cells (HLMC). The series is described as follows: Histamine release assay, anti-IgE-induced histamine release from purified human lung mast cells. Type of series: cell-based. The method, then: (§1) Lung fragments were washed with Tyrode's buffer containing (g/l): NaCl, 8.0; KCl, 0.2; NaH2PO4, 0.05; and glucose, 1.0. The buffer was titrated to pH 7.2 by the addition of NaHCO3. Mast cell isolation and elutriation were performed in a buffer designated “TGMD”, prepared from Tyrode's buffer to which the following were added (g/l): gelatin (1.0), magnesium (0.25; 1 mM), and DNase (0.01). The buffer designated “PAGCM” was a Pipes-albumin (0.003%) buffer containing (g/l): glucose (1.0), CaCl2.2H2O, 0.14 (1 mM); and MgCl2.6H2O, 0.2 (1 mM).
(§2) Mast cells were dispersed from human lung by methods previously reported (Schulman et al., J. Immunol. 29:2662-2667 (1982); Schulman et al., J. Immunol. 131:1936-1941 (1983)). Briefly, lung specimens obtained at thoracotomy for bronchogenic carcinoma were finely minced and extensively washed in divalent cation-free Tyrode's buffer. Fragments were briefly incubated in a mixture of pronase (2 mg/ml) and chymopapain (0.5 mg/ml). Freed cells were harvested through Nytex nylon cloth (150 microns pore size). Residual fragments were further exposed to a mixture of collagenase (1 mg/ml) and elastase (10 units/ml). All incubations and washes were performed at 37° C.; recovered cells were immediately washed three times in large volumes of TGMD. Mast cell purities in these human lung cell suspensions ranged from 1-8% as determined by alcian blue staining (Gilbert et al., Blood 46:279-285 (1975)). Lung mast cells were further purified, by counter-current elutriation, using previously reported methods (Schulman et al., J. Immunol. 131:1936-1941 (1983)). Mast cells were purified (80->98%) by flotation of enriched elutriation fractions through a discontinuous Percoll gradient (Ishizaka et al., J. Immunol. 130:2357-2362 (1983)). Further mast cell purification was accomplished by immunomagnetic negative selection against CD2, CD3, CD4, CD8, CD14, CD16, CD21 and HLADR to ensure against contamination by T cells, B calls, NK cells, monocytes, and dendritic cells prior to mast cell stimulation using previously described methods (Jaffe et al., Am. J. Respir. Cell. Mol. Biol. 13:665-675 (1995); Jaffe et al., Am. J. Respir. Cell. Mol. Biol. 15:473-481 (1996)).
The concentrations of anti-IgE produce 30-70% of maximal release. Twenty minutes following activation, cells were rapidly pelleted and supernatants removed for histamine analysis. Histamine release was expressed as the net histamine released divided by the total histamine content×100%. The total cellular histamine content was determined following cell lysis with 2% perchloric acid. Spontaneous histamine release was always <2% of cellular histamine and generally <1%. Histamine measurements were performed using the automated spectrofluorometric method of Technicon (Tarrytown, N.Y.). Variations between replicates were consistently <5%. All assays were run in duplicates.

In a further series the test system is HLMC. Put plainly: Functional ectoATPase assay of HLMC (HPLC detection of purine compounds). In kind it is in vitro ADME, human. Particulars: 10^−4M ATP, anti-IgE activated HLMC, 15 + 20 min incubation, n=3. The method, then:
The supernatants were separated from the cells by centrifugation at 14,000-×g for 5 minutes and kept at −20° C. until analyzed by HPLC. The method of Stocci et al., Anal. Biochem. 167:181-90 (1987) was used for the detection of the purine compounds. The HPLC system consisted of Waters 600E controller, Waters Novapak 4 μm 3.9×150 mm C18 column, and a 990 photodiode array detector. The solvent consisted of 0.1 mM KH2PO4, 8 mM tetrabutylammonium hydrogen sulfate (TAHS) pH 6.0 (buffer A), and 0.1 mM KH2PO4, 8 mM TAHS pH 6.0 with 30% (v/v) methanol (buffer B). The flow rate was 1 ml/min. with the following gradient program: 100% A to 2.5 min., linear gradient to 20% B at 5 min, to 40% B at 10 min., to 100% at 13 min., then 100% B to 30 min. 100 μl of supernatant (neat) was injected and the separation monitored at 254 nm over the 30 minute run time. The ATP peak areas were calculated and compared among the conditions. […] The data are the result of three experiments.

In series [2] the test system is rat peritoneal mast cells. Particulars: cited from earlier work.
The test system of series [3] is human lung mast cells (HLMC). Put plainly: Direct induction of histamine release from HLMC without anti-IgE. In kind it is cell-based. The note with it: for direct induction of histamine release: no anti-IgE. How it is done: as §1
as §2, with “Further mast cell purification was accomplished by immunomagnetic negative selection against CD2, CD3, CD4, CD8, CD14, CD16, CD21 and HLADR to ensure against contamination by T cells, B calls, NK cells, monocytes, and dendritic cells prior to mast cell stimulation using previously described methods (Jaffe et al., Am. J. Respir. Cell. Mol. Biol. 13:665-675 (1995); Jaffe et al., Am. J. Respir. Cell. Mol. Biol. 15:473-481 (1996)).” left out
The concentrations of anti-IgE produce 30-70% of maximal release. […] Histamine release was expressed as the net histamine released divided by the total histamine content×100%. The total cellular histamine content was determined following cell lysis with 2% perchloric acid. […]

The mark [4] stands for this setting: Example 3, control 9.9±3.1%, n=10.
The mark [5] stands for this setting: Example 4, 10^−4M (equimolar), control 14.9±3.9%, six experiments, p<0.05.
The mark [6] stands for this setting: Example 5, 10^−4M, control 10.3±3.0%, n=6.
Where [7] appears, read: Example 5, 10^−5M, control 10.3±3.0%, n=6.
Setting [8] is: Example 3, control 9.9±3.1%, ten experiments.

human P2Y1 receptor, sequence (P47900 whole entry, the tested form may be a part): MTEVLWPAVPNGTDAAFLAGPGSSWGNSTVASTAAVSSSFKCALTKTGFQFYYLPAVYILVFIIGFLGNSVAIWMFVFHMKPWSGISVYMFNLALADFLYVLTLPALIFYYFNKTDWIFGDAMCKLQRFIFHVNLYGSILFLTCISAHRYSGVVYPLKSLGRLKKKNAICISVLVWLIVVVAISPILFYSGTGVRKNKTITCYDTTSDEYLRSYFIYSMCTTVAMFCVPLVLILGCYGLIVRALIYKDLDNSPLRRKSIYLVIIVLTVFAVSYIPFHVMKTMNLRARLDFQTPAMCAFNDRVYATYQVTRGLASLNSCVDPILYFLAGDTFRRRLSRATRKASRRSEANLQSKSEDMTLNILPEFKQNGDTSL

Turning to `Nc1ncnc2c1ncn2[C@@H]1O[C@H](COP(=O)(O)O)[C@@H](OP(=O)(O)O)[C@H]1O` [A3P5P, adenosine-3′-phosphate-5′-phosphate], the “agonist activity at the human P2Y1 receptor” value (from here on “agonist activity”) at human P2Y1 receptor is “devoid of agonist activity”.

Take `Cc1nc(N=Nc2ccc(S(=O)(=O)O)cc2S(=O)(=O)O)c(COP(=O)(O)O)c(C=O)c1O` [PPADS, pyridzalphosphate-6-azophenyl-2′,4′-disulfonic acid]: the “anti-IgE-induced histamine release with ATP after preincubation with antagonist” value in series [1] (Example 9, ATP alone 15.7±7.1%, no significant modulation) is on record as 16.1±5.9%.

On to `Nc1ncnc2c1ncn2[C@@H]1O[C@H](COP(=O)(O)OP(=O)(O)OP(=O)(O)O)[C@@H](O)[C@H]1O` [ATP, adenosine 5′-triphosphate], for which the “area under the ATP peak vs control (ATP alone without HLMC)” value in the series on HLMC is “no noticeable decrease”. Besides, the anti-IgE-induced histamine release in series [1] (10^−3M, n=9, control 10.1+3.4%, not statistically significant (p>0.05)) is recorded as 14.0+2.4%; in series [1] (10^−4M, high responders, control 24.2±4.2%, n=7) it was 32.9±4.5%; in series [1] (10^−4M, low responders (<3%), control 1.8±0.4%, n=6) it was 13.5±2.7%; in series [1] (ATP 10^−4M, 20 anti-IgE-responsive preparations, control 10.9+2.7%, p<0.01), 19.2+2.9%; in series [1] (setting [4]), 17.7±4.1%; in series [1] (setting [5]) it was 23.0±4.7%. For the same compound, the anti-IgE-induced histamine release result in series [1] (setting [6]) is recorded as “significantly enhanced”; in series [1] (setting [7]), “significantly enhanced”; in series [1] (Example 9, ATP 10^4−M, control 11.2±5.3%, four experiments) it was 15.7±7.1%. In addition, the “effect on anti-IgE-induced histamine release” value is on record as “enhanced histamine release” in series [1] (10^−4M, 9 of 9 experiments, control 10.1+3.4%, p<0.05); “enhanced histamine release” in series [1] (10^−5M, 9 of 9 experiments, control 10.1+3.4%, p<0.05); “no effects” in series [1] (10^−6M, six preparations). Also, the “percent enhancement of anti-IgE-induced histamine release” value in series [1] (10^−4M, high responders, n=7) came out at 35%; in series [1] (10^−4M, low responders, n=6) it was 750%. Moreover, the “enhancement of anti-IgE-induced histamine release (absolute)” value in series [1] (10^−4M, lowest and highest anti-IgE responsive preparations) is 8-10%. Also, the “effect in preparations that failed to respond to anti-IgE alone” value in series [1] (preincubation 10^−6-10^−3M, 3/23 preparations) is “without effect”. Besides, in series [2] (depressed by Ca^2+ and Mg^2+), the “concentration of maximum mediator secretion” value is 2 µM. Further, the “concentration that inhibits mediator release” value in series [2] (in the presence of millimolar Ca^2+) was “above 3 μM”. The “direct induction of histamine release” value in series [3] (ATP 10^−7M-10^−3M, n=23) was “did not directly induce histamine release”. Also, the “histamine release on ATP challenge” value in series [3] (Ca^2+-free and Mg^2+-free media, results not shown) is “failed to provoke histamine release”.

Regarding `Nc1ncnc2c1ncn2[C@@H]1O[C@H](COP(=O)(O)OS(=O)(=O)O)[C@@H](OP(=O)(O)O)[C@H]1O` [A3P5PS, adenosine-3′-phosphate-5′-phosphosulfate], at human P2Y1 receptor, the “agonist activity” value is “devoid of agonist activity”.

As to adenosine-2′-phosphate-5′-phosphoribose, the “agonist activity” value at human P2Y1 receptor was “Partial agonists”.

With `CSc1nc(N)c2ncn([C@@H]3O[C@H](COP(=O)(O)OP(=O)(O)OP(=O)(O)O)[C@@H](O)[C@H]3O)c2n1` [2-mSATP, 2methylthio-ATP], in series [1] (setting [4]), the anti-IgE-induced histamine release came to 14.3±3.9%.

On to `Nc1ncnc2c1ncn2[C@@H]1O[C@H](COP(=O)(O)OP(=O)(O)CP(=O)(O)O)[C@@H](O)[C@H]1O` [β,γmATP, β,γmethylene-ATP], for which the “effect on anti-IgE-induced histamine release” value in series [1] (setting [8]) was “enhanced”. The “induction of mediator release” value in series [2] was “inactive”.

Turning to `Nc1ncnc2c1ncn2[C@@H]1O[C@H](COP(=O)(O)O)[C@@H](O)[C@H]1OP(=O)(O)O` [A2P5P, adenosine-2′-phosphate-5′-phosphate], the “agonist activity” value at human P2Y1 receptor is listed as “Partial agonists”.

Take `Nc1ncnc2c1ncn2[C@@H]1O[C@H](COP(=O)(O)CP(=O)(O)OP(=O)(O)O)[C@@H](O)[C@H]1O` [α,βmATP, α,βmethylene-ATP]: the “effect on anti-IgE-induced histamine release” value in series [1] (setting [8]) is “enhanced”. The “induction of mediator release” value in series [2] was “inactive”.

As for uracil triphosphate [UTP], the anti-IgE-induced histamine release in series [1] (setting [5]) came out at 19.2±5.0%. Besides, the “achieving mediator release in comparison with ATP” value in series [2] (10^−4M) was “almost inactive”.

Regarding `Nc1ncnc2c1ncn2[C@@H]1O[C@H](CO)[C@@H](O)[C@H]1O` [adenosine], the anti-IgE-induced histamine release in series [1] (Example 5, 10^−3 M, control 10.3±3.0%, n=6, p<0.05) was found to be 5.3±1.9%; in series [1] (setting [6]) it was 11.2±4.7%; in series [1] (setting [7]) it was 13.4±5.6%. For the same compound, in series [3] (adenosine alone), the “direct induction of histamine release” value is “did not directly induce histamine release”.
